Measured values from patent publication US20200360305A1 (INSERM (Institut National de la Ssnté et de la Researche …, priority 2017, published 2020).
“Also recorded” adds a separate entry of the source. Where two headings read alike, the source gives them in different places. Each block holds one compound with its values, some of them ahead of it.

Experiments:
[1] = old mice; cited from earlier work
[2] = ApoE-/- mice fed a high-fat diet for 20 weeks; cited from earlier work
[3] = mice, model of normal tension glaucoma; cited from earlier work
[4] = cited from earlier work
Drosophila = conditions: cited from earlier work
[5] = Dahl salt-sensitive rats, high-salt diet, oral supplementation; cited from earlier work
[6] = system: polyamine and acetyl coenzyme A metabolism; assay: Metabolomics analysis of tissues (polyamines, acetyl CoA, TETA metabolites); format: in vivo, mouse; conditions: for Acetyl coenzyme A (CoA) levels: liver (FIG. 7C); for Acetyl coenzyme A (CoA) levels / Ratio of N1-acetylspermidine over spermidine (polyamine catabolism): mice upon HFD regimen; for Ratio of N1-acetylspermidine over spermidine (polyamine catabolism): liver, heart or muscle (FIG. 7B)
Procedure: Metabolomics analysis. All standard and reagents used were from Sigma Aldrich except Ammonium carbonate (VWR). For sample preparation, about 30 mg of tissues for each condition were first weighted and solubilized into 1.5 mL polypropylene microcentrifuge tubes with ceramic beads with 1 mL of cold lysate buffer (MeOH/Water/Chloroform, 9/1/1, −20° C.). They were then homogenized three times for 20 s at 5500 rpm using a Precellys 24 tissue homogenator (Bertin Technologies, Montigny-le-Bretonneux, France), followed by a centrifugation (10 min at 15000 g, 4° C.). […] The LC-MS dried extracts were solubilized with 450 μL of MilliQ water and aliquoted in 3 microcentrifuge tubes (100 μL) for each LC method and one microcentrifuge tube for safety. Aliquots for analysis were transferred in LC vials and injected into LC/MS or kept at −80° C. until injection. For sample preparation of polyamines, about 30 mg of tissues for each condition were first weighted and solubilized into 1.5 mL polypropylene microcentrifuge tubes, with 1 mL of cold lysate buffer with 1% sulfosalicylic acid (MeOH /water 1% SSA, 9/1, −20° C.). They were then homogenized three times for 20 s at 5500 rpm using Precellys 24 tissue homogenator (Bertin Technologies, Montigny-le-Bretonneux, France), followed by a centrifugation (10 min at 15000 g, 4° C.). 600 μL of the upper phase of the supernatant was collected and evaporated in microcentrifuge tubes at 40° C. in a pneumatically assisted concentrator (Techne DB3, Staffordshire, UK). The LC-MS dried extracts were solubilized with 300 μL of MilliQ water, centrifugated (10 min at 15000 g, 4° C.), and 50 μL were transferred in polypropylene vial injection for LC method and the rest was transferred in microcentrifuge tube for safety. Aliquots transferred in polypropylene vials were injected into LC/MS or kept at −80° C. until injection. Targeted analysis of CoAs and nucleoside phosphates by ion pairing ultrahigh performance liquid chromatography (UHPLC) coupled to a Triple Quadrupole (QQQ) mass spectrometer was performed on a RRLC 1260 system (Agilent Technologies, Waldbronn, Germany) coupled to a Triple Quadrupole 6410 (Agilent Technologies) equipped with an electrospray source operating in positive mode. The gas temperature was set to 350° C. with a gas flow of 12 L/min. The capillary voltage was set to 3.5 kV.
10 μL of sample were injected on a Column XDB-C18 (100 mm×2.1 mm particle size 1.8 μm) from Agilent technologies, protected by a guard column XDB-C18 (5 mm×2.1 mm particle size 1.8 μm) and heated at 40° C. by a pelletier oven.
The gradient mobile phase consisted of water with 2 mM of DBAA (A) and acetonitrile (B). The flow rate was set to 0.2 mL/min, and gradient as follow: initial condition was 90% phase A and 10% phase B, maintained during 4 min. Molecules were then eluted using a gradient from 10% to 95% phase B over 3 min.

[7] = old mice; cited from earlier work; remark: listed apart in the source
[8] = mice, spermidine supplementation; cited from earlier work
[9] = mice on a high fat diet; cited from earlier work
[10] = in vivo; cited from earlier work
[11] = mice; cited from earlier work
[12] = system: invertebrate model organisms; conditions: spermidine supplementation; cited from earlier work
[13] = From the text: Mouse experiments Six-to 7-week-old male WT C57Bl/6 were obtained from Envigo, France. Mice were maintained in specific pathogen-free conditions in a temperature-controlled environment with 12-hr light/12-hr dark cycles and received food and water ad libitum. Animal experiments were in compliance with the EU Directive 63/2010 and protocols 2012_069 and APAFIS #5272-2016042112271931v2 were approved by Ethical Committee of the Gustave Roussy Campus and Cordeliers Research Centre respectively. For weight gain experiments, mice were fed high fat diet (#260HF, Safe, France) or were given 30% sucrose solution in tap water.
[14] = chronic TETA
Procedure: Glucose and Insulin Tolerance Test. For glucose tolerance test (GTT) mice were fasted O/N for 16 hours. 2.5 g/kg/BW glucose solution in PBS was injected intraperitoneally and blood glucose levels was measured by means of glucometer in tail vein blood. Tail snipping was used to obtain blood. Before snips, the tail end was dipped into Bupivicaine (0.25%) for local anesthesia. For the insulin tolerance test (ITT), mice were starved for 4 hours and a solution of 0.75 U/kg/BW insulin was injected intraperitoneally. Blood glucose is measured at 30, 60, and 120 minutes after glucose or insulin injection.

[15] = system: N-e-acetylated Lysine residues of proteins; assay: Quantitative analysis of protein acetylation in tissues (immunofluorescence); conditions: mice
[16] = HFD mice, TETA 8 weeks
Procedure: Plasma cytokine measurements. Plasma was harvested from blood collection tubes by centrifugation at 15,000 rpm for 30 min, and stored at −80° C. Cytokines and levels were measured using a mouse serum adipokine immunoassay kit according to the protocol provided by the manufacturer (Cat. # MMHMAG-44K, EMD Millipore, Temecula, Calif., USA).

[17] = patients, long-term (decades) administration; cited from earlier work
[18] = system: autophagy (LC3-I to LC3-II conversion, p62/SQSTM1 degradation); conditions: oral administration (not shown)
Procedure: Tissue processing for Immunoblotting. […] Tissue extracts were then centrifuged at 12,000 g at 4° C. and supernatants were collected. Protein concentration in the supernatants was evaluated by the bicinchoninic acid technique (#23225, BCA protein assay kit). Protein extracts were run on 4-12% Bis-Tris acrylamide gels (# NP0322, Thermo Fisher Scientific) and electrotransferred to […] polyvinylidene fluoride (PVDF) membranes (#1620177,Bio-Rad). […] Equal protein loading was monitored by probing membranes with a glyceraldeyde-3-phosphate dehydrogenase (GAPDH)-specific antibody (#2118, Cell Signaling Technology). Membranes were developed with suitable horseradish peroxidase conjugates followed by chemiluminescence-based detection with the Amersham ECL Prime (# RPN2232, GE Healthcare and the ImageQuant LAS 4000 software-assisted imager (GE Healthcare, Piscataway, N.J., USA). Quantification was performed by densitometry by means of Image J software. Autophagy was quantified through evaluation of LC3-II/GAPDH ratio and SQSTM1/GAPDH ratio in accordance to guidelines.

[19] = mice with excessive weight gain, chronic TETA (not shown)
[20] = mice with excessive weight gain (HFD, sucrose, ob/ob)

- N1-acetylspermidine levels ([6]; liver (FIG. 7A) and all mouse organs (data not shown)): increase in N1-acetylspermidine levels
- Acetyl coenzyme A (CoA) levels [6]: acetyl coenzyme A (AcCoA) depletion
- Acetyl coenzyme A (CoA) levels ([6]; listed as spermidine): reduced acetyl coenzyme A (CoA) levels
- Ratio of N1-acetylspermidine over spermidine (polyamine catabolism) [6]: promote polyamine catabolism
- Ratio of N1-acetylspermidine over spermidine (polyamine catabolism) ([6]; listed as spermidine): increased the ratio
Compound: NCCCCNCCCN [Spermidine, spermidine]
- Age-induced arterial stiffness [1]: reversed age-induced arterial stiffness
- Formation of atherosclerotic plaques [2]: alleviated the formation of atherosclerotic plaques
- Retinal degeneration [3]: blunts retinal degeneration
- Cardiac aging ([4]; aging mice, chronic administration): protects from cardiac aging
- Diastolic function, left ventricular elasticity, and mitochondrial function ([4]; old mice): improves
- Age-induced memory impairment (Drosophila): protects from age-induced memory impairment
- Loss of locomotor activity (Drosophila): protects from
- Blood pressure [5]: reduced high blood pressure
- Transition to heart failure [5]: delayed the transition to heart failure
- Spermidine level in organs ([6]; mice, after spermidine administration): increase of this polyamine in most organs except plasma
- Spatial learning and memory capabilities [7]: improves spatial learning and memory capabilities
- Longevity [8]: extends the longevity
- Glucose tolerance [9]: improved
- Insulin sensitivity [9]: improved
- Weight gain [9]: reduced weigh gain
- Anticancer immune response [10]: enhance the anticancer immune response
- Signs of pathology in experimental autoimmune encephalomyelitis [11]: attenuates signs of pathology
- Longevity [12]: extends the longevity

Compound: NCCNCCNCCN [TETA, N,N′-Bis(2-aminoethyl)ethane-1,2-diamine]
- Accumulation of intestinal and perigonadal adipose tissue [13, 19]: reduced accumulation of intestinal and perigonadal adipose tissue
- Fat accumulation in the liver [13, 19]: reduced fat accumulation in the liver
- Weight gain ([13]; normal mice on a high-fat diet, TETA in drinking water): reduced the accelerated weight gain
- Weight gain ([13]; normal mice on a high-sucrose diet (30% sucrose in drinking water), TETA per os 100 mg/kg): reduced the accelerated weight gain
- Weight gain ([13]; ob/ob mice): reduced the accelerated weight gain
- Weight gain ([13]; wild type mice on standard chow, TETA in drinking water or by gavage): failed to affect the physiological weight gain
- Glucose tolerance test ([14]; WT mice fed a normal diet): had no effect
- Insulin tolerance test ([14]; WT mice fed a normal diet): had no effect
- Plasma glucose concentration after intraperitoneal glucose (GTT) [14, 20]: reduced the plasma glucose concentration
- Transient decrease in glycemia after injection of insulin (ITT) [14, 20]: enhanced the transient decrease in glycemia
- Protein acetylation in heart (cardiomyocytes) [15]: reduces protein acetylation; also recorded: reduction in protein acetylation
- Protein acetylation in liver (hepatocytes) [15]: reduces protein acetylation; also recorded: reduction in protein acetylation
- Plasma C-peptide [16]: prevented the HFD-induced elevation
- Plasma IGFBP1 [16]: prevented the HFD-induced elevation
- Plasma adiponectin levels [16]: increased the adiponectin levels
- Plasma gastric inhibitory peptide (GIP) [16]: prevented the HFD-induced elevation
- Plasma insulin [16]: prevented the HFD-induced elevation
- Plasma leptin [16]: prevented the HFD-induced elevation
- Plasma plasminogen activator inhibitor-1 (PAI-1) [16]: prevented the HFD-induced elevation
- Plasma resistin [16]: prevented the HFD-induced elevation
- Side effects [17]: side effects are mild
- Signs of autophagy in several mouse organs [18]: induced signs of autophagy
